Test [1] addresses T1, Calpain-2 catalytic subunit (Sus scrofa, UniProt P43367).
T1 sequence (P43367 whole entry): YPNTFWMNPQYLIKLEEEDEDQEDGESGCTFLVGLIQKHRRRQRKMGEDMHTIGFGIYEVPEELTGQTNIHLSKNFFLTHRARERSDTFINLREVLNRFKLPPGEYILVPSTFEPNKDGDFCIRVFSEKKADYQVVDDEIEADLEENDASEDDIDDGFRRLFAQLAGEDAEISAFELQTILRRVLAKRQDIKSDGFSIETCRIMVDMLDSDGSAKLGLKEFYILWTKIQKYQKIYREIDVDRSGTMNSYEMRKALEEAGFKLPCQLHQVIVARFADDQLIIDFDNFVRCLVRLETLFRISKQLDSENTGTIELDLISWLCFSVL
The test is described as follows: pig calpain II inhibitor potency, dose response, biochemical, fluorogenic peptide substrate (AID 1420). The format is functional.

In test [2] the target is T2, Caspase-3 (Homo sapiens, UniProt P42574).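 Further: Dose-response selectivity test against caspase-3 for candidate inhibitors of sentrin-specific proteases (SENPs).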
T2 sequence (P42574 whole entry): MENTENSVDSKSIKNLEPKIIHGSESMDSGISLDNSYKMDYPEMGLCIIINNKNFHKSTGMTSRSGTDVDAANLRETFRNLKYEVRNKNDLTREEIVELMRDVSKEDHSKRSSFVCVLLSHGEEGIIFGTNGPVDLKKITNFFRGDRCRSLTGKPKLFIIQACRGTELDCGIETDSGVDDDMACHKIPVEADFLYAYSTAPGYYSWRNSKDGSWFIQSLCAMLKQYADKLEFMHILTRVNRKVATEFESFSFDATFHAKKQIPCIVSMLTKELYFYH
The test is classed as functional.

In test [3] the target is T3, Sentrin-specific protease 7 (Homo sapiens, UniProt Q9BQF6).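 Further: Luminescence-based dose-response confirmation of ultra-high-throughput screening hits, measuring inhibition of SENP7.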
T3 sequence (Q9BQF6 whole entry): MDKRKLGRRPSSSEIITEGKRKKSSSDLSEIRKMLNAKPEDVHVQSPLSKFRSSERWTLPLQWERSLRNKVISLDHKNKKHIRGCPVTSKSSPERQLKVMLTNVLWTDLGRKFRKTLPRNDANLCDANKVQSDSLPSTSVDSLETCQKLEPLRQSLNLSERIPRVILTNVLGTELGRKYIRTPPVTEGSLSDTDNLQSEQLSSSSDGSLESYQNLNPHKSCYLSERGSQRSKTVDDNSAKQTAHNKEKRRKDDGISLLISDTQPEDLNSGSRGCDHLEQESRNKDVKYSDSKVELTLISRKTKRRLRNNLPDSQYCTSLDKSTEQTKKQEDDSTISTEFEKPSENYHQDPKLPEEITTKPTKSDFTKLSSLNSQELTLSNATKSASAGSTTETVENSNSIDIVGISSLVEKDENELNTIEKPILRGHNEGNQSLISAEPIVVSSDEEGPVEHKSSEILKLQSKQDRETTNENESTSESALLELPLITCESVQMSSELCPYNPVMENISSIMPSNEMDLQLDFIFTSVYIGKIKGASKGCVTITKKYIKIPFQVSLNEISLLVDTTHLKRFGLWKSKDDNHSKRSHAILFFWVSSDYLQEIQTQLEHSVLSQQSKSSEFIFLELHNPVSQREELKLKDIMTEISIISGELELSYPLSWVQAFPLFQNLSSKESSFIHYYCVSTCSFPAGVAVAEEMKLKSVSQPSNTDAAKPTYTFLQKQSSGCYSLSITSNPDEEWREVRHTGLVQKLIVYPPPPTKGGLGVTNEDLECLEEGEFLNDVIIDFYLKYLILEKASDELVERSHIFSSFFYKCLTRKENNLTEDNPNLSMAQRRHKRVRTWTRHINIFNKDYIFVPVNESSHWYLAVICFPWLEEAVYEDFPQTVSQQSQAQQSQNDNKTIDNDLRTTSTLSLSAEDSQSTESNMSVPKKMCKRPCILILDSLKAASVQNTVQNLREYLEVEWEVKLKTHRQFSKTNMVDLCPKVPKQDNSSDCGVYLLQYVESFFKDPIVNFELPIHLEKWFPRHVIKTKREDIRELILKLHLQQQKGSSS
The format is functional.

Test [4] concerns the target T4, Sentrin-specific protease 6 (Homo sapiens, UniProt Q9GZR1).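 Further: Luminescence-based dose-response confirmatory assay of SENP6 inhibition, following up an ultra-high-throughput screen.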
T4 sequence (Q9GZR1 whole entry): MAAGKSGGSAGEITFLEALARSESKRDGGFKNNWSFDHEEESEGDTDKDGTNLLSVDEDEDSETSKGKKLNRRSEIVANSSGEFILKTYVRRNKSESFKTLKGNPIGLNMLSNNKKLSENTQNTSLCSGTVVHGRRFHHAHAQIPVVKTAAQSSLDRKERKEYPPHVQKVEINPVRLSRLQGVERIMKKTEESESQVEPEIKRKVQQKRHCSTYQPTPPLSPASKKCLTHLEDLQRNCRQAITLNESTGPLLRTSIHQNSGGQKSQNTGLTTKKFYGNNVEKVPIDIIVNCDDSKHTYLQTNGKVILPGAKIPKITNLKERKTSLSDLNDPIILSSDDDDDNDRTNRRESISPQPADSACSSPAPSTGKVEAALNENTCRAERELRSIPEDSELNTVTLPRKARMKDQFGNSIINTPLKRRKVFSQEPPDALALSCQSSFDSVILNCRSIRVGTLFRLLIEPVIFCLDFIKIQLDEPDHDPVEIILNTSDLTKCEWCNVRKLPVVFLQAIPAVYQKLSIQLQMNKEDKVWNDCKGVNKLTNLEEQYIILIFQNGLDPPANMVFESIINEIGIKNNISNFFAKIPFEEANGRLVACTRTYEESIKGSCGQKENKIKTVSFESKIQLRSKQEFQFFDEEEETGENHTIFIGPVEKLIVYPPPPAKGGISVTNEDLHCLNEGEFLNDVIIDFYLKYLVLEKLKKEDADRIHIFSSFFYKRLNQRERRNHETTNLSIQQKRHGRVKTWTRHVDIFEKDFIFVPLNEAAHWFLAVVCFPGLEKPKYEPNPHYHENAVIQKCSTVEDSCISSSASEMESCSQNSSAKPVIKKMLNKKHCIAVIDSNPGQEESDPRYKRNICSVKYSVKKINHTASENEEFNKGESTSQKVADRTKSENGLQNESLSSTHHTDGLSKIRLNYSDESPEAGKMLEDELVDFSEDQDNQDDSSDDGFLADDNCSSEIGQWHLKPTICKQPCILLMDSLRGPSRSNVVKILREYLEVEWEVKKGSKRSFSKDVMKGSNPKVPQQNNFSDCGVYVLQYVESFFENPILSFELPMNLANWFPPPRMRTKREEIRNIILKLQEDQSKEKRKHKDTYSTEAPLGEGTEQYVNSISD
The format is functional.

Test [5] deals with T5, Sentrin-specific protease 8 (Homo sapiens, UniProt Q96LD8).
T5 sequence (Q96LD8 whole entry): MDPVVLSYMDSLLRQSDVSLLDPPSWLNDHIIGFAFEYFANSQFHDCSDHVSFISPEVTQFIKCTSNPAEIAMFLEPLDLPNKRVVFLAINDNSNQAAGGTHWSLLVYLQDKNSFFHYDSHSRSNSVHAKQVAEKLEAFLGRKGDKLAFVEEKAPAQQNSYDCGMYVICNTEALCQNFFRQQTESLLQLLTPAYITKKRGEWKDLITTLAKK
The format is functional.

Test [6] is described as follows: P. falciparum Dd2 growth inhibitors, dose response, SYBR Green, cherry-picked samples (AID 1159567). The test is classed as functional, cell-based.
Test [7] can be described thus: HepG2 cell cytotoxicity, dose response, cytotoxicity control, cherry-picked samples (AID 1159577). The test is classed as functional, cell-based.
The target of test [8] is Prothrombin (Homo sapiens, UniProt P00734). The test is described as follows: Thrombin 1536 HTS Dose Response Confirmation. [Related pubchem assays: 1046 (Thrombin 1536 HTS; hits were confirmed in this assay)]. The test is classed as functional.
Test [9] concerns the target Cytochrome P450 3A4 (Homo sapiens, UniProt P08684). The following applies: Potency.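 Further: confirmatory qHTS run detecting inhibitors and substrates of CYP3A4.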
Test [10] can be described thus: P. falciparum 3D7-ScDHODH growth inhibitors, dose response, SYBR Green, dry powder samples (AID 1159570).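 Further: parasite growth measured after 72 hours of compound exposure.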 The format is functional, cell-based.
Test [11] can be described thus: HepG2 cell cytotoxicity, dose response, cytotoxicity control, plate reader, dry powder samples (AID 1159569).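 Further: inhibitor potency with signal falling toward the positive control level.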 The format is functional, cell-based.
Test [12] in a line: P. falciparum Dd2 growth inhibitors, dose response, SYBR Green, dry powder samples (AID 1159566).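 Further: potency for growth inhibition with lower SYBR green DNA signal.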 The format is functional, cell-based.
Test [13] is described as follows: P. falciparum ATP4 D1247Y mutant growth inhibitors, dose response, NITD609-resistant line, SYBR Green, dry powder (AID 1159571).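 Further: parasites synchronized at ring stage by sorbitol before testing.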 The test is classed as functional, cell-based.
In test [14] the target is Voltage-dependent T-type calcium channel subunit alpha-1H (Homo sapiens, UniProt O95180). The format is functional.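 Further: channel activity triggered by adding a high calcium stimulation buffer.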
Test [15] deals with T6, Protein skinhead-1 (Caenorhabditis elegans, UniProt P34707).
T6 sequence (P34707 whole entry): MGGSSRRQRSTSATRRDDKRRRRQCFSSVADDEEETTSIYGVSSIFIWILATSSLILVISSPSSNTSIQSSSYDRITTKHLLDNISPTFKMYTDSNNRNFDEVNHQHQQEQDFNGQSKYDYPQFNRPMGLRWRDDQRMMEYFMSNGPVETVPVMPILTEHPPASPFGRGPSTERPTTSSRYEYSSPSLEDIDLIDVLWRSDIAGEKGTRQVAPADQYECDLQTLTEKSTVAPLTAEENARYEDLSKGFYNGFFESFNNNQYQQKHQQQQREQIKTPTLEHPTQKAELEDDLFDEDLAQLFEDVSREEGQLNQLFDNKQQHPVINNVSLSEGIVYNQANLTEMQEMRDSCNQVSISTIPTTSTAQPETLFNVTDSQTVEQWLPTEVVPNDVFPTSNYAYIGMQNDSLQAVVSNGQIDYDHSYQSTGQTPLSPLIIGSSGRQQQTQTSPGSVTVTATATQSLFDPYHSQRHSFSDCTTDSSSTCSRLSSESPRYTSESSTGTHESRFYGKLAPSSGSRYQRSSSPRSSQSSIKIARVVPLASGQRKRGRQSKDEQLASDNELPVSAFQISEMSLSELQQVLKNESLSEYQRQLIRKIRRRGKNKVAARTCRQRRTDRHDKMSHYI
The test is classed as functional.

Usually IC50 stands for the midpoint of a concentration-inhibition curve. The AC50 is the concentration at which the activity in the assay is half-maximal. The EC50 is the concentration needed to bring the measured effect to its halfway point.

Calls of active or inactive are those of the source. Some results are limits rather than exact numbers.

Cytochrome P450 3A4, sequence (P08684 whole entry): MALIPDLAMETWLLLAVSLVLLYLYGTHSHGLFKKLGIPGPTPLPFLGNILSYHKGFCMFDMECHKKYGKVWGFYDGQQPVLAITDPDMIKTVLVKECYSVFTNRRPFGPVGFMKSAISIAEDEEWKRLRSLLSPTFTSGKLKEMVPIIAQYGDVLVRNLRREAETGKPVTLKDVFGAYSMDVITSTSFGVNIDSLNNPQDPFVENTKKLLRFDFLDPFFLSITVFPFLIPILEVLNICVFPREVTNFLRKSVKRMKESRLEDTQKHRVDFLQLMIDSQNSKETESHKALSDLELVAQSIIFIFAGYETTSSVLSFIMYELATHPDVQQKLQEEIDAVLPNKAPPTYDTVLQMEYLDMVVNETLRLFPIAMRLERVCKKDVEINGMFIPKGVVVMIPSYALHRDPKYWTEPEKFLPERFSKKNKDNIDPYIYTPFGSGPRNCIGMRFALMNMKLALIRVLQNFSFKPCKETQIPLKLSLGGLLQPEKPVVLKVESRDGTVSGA
Voltage-dependent T-type calcium channel subunit alpha-1H, sequence (O95180 whole entry): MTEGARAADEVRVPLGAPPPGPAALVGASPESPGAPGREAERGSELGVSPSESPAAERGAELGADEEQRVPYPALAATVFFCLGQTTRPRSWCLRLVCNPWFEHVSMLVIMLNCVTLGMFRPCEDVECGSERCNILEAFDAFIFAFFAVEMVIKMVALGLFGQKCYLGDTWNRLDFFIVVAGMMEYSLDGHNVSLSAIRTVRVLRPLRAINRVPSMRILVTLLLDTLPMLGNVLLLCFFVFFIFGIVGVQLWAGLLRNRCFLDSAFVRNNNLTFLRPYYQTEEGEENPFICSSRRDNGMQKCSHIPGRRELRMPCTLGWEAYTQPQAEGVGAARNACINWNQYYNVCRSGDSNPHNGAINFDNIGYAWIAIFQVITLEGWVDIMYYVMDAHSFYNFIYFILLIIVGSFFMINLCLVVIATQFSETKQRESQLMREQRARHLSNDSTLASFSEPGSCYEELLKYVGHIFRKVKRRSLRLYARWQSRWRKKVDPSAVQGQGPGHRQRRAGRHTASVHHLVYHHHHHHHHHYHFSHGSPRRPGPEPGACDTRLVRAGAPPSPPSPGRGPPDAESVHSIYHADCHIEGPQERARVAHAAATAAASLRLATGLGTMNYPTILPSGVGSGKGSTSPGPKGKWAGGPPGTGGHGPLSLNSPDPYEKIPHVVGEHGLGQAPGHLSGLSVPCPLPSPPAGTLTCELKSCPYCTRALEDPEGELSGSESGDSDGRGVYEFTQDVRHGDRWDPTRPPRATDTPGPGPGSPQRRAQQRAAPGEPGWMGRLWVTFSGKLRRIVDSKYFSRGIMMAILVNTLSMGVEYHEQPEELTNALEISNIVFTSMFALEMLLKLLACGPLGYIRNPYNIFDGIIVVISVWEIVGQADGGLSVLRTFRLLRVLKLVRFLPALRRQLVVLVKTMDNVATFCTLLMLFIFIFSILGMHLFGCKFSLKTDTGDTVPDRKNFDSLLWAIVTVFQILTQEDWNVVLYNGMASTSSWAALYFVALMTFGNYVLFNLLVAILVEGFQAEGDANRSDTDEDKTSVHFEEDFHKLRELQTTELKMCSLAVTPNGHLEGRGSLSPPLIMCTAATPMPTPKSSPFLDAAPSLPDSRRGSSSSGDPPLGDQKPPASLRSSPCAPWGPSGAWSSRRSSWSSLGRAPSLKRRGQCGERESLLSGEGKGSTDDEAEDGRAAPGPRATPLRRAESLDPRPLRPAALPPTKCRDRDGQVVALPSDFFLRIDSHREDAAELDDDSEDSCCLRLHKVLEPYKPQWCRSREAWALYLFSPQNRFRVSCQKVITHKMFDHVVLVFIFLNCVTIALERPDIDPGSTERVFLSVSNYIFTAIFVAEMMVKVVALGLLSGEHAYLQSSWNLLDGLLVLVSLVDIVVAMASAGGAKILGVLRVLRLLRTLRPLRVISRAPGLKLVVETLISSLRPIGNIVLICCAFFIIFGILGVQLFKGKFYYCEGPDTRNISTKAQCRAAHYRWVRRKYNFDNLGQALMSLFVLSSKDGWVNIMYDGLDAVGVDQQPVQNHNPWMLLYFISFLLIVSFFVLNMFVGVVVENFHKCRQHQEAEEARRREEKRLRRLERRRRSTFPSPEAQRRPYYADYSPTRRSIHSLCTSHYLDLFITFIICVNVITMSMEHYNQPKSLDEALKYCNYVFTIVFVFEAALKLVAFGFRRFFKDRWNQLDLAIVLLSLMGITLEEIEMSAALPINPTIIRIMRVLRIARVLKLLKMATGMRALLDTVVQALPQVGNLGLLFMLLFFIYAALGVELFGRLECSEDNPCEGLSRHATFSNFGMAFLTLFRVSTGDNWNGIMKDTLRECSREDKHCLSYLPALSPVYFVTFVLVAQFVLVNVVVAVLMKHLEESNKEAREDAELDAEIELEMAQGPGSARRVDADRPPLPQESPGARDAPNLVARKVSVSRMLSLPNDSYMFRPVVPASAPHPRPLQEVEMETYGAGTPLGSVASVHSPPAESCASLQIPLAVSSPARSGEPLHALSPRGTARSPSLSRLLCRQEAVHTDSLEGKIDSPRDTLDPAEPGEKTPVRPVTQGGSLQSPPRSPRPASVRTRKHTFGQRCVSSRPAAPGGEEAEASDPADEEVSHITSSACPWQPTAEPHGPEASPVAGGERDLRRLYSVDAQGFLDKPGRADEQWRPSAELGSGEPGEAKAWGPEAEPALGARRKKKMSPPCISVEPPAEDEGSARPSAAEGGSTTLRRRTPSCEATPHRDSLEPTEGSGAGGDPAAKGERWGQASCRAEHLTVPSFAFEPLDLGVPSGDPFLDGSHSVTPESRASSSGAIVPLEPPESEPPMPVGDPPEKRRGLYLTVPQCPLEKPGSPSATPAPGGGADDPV

Turning to `O=C(Nc1ccc2c(c1)CCC2)c1cccc(S(=O)(=O)Nc2ccccc2Cl)c1`, the IC50 in test [1] is 6.7 µM (not active); in [2], 70.3 µM (active); in [3], 23.9 µM (active); in test [4], 47.3 µM (active); in test [5], 92.9 µM (active).
Regarding `Cc1cccc(-c2ccc([C@@H]3[C@H](CO)N4CCCCN(S(=O)(=O)c5ccccc5C)C[C@@H]34)cc2)c1`, the results for the AC50 in test [6] and in test [7] were 0.845 µM (active) and 9.3 µM (active), respectively.
Turning to `CCOC(=O)Cn1c(=O)oc2cc(S(=O)(=O)NCCc3ccc(C)cc3)ccc21`, the concentration for half-maximal inhibition (IC50) in [8] is given as > 50 µM (not active).
`CCOC(=O)C1=CC(OC(CC)CC)C(NC(C)=O)C(N)C1` (stereo unspecified): in test [9], the AC50 is 25.1 µM (inconclusive).
As to `Cc1c(C(=O)N2c3ccccc3Sc3ccccc32)cccc1[N+](=O)[O-]`, the IC50 in test [1] is 2.4 µM (not active).
`COc1ccc(Cl)cc1N(CC(=O)NC(C)(C)C)S(=O)(=O)c1ccc(C)c([N+](=O)[O-])c1`: the IC50 in test [1] is 12.7 µM (not active).
With `CCCN1CCC2(CC1)CN(Cc1ccccc1OC)[C@H](CO)c1c2c2ccc(OC)cc2n1C`, the AC50 in test [10] was 1.49 µM (active); in test [11], 25.7 µM (active); in [6], 2.22 µM (active); in [12], 0.681 µM (active); in test [7] it was > 39 µM (inactive); in test [13] it was 0.888 µM (active).
In the case of `COCCNC(=O)C1(CC(C)C)C=CCN1C(=O)OC` (stereo unspecified), the AC50 in [9] was 0.1 µM (inconclusive).
`COc1ccc(C(=O)N(Cc2nc(-c3ccc(C)cc3)no2)C2CCCCC2)cc1OC`: the IC50 in test [1] is 10.8 µM (not active). Further, in test [14], the EC50 is 8.02 µM (active).
For `Cc1ccc(O)c(/N=N\c2ccccc2)n1`, the AC50 in test [9] is 5.01 µM (inconclusive).
With `COc1ccccc1N1CCN(CC(O)COc2ccc3c(c2)OCO3)CC1` (stereo unspecified), the IC50 in test [1] was > 50 µM (not active).
On to `Nc1nc(-c2ccco2)nn1C(=O)c1cccnc1`, for which the IC50 in test [8] is 0.589 µM (active).
For `O=C(N/N=C\c1ccccc1O)c1ccccc1O`, the AC50 in test [9] was 6.31 µM (inconclusive).
As for `NC(=NOC(=O)c1cccc(Cl)c1)c1cccnc1`, the IC50 in test [8] was > 50 µM (not active); in [15], 86.4 µM (inactive).
`CO[C@@H]1CN(C)C(=O)c2cc(NC(=O)c3nc4ccccc4s3)ccc2OC[C@@H](C)N(Cc2ccncc2)C[C@H]1C`: the AC50 was 5.88 µM (active) in test [6] and 24.5 µM (active) in test [7].
In the case of `O=C(Nc1ccccc1)N1CCCCN2[C@H](CO)[C@H](c3ccc(C#Cc4ccccc4)cc3)[C@@H]2C1`, the AC50 is 0.0378 µM (active) in test [10]; > 100 µM (inactive) in test [11]; < 0.3 µM (active) in test [6]; 0.0425 µM (active) in [12]; 0.0386 µM (active) in [13].
On to `COc1cccc(C#Cc2ccc([C@@H]3[C@@H](CO)N4C(=O)CN(C(=O)c5ccccc5)C[C@@H]34)cc2)c1`, for which the AC50 is 2.23 µM (active) in test [10]; 2.3 µM (active) in [6]; 1.19 µM (active) in test [12]; > 39 µM (inactive) in [7]; 1.53 µM (active) in test [13].
For `CCN(CC)C(=O)Cn1cc(C(=O)C(=O)NCCCn2ccnc2)c2ccccc21`, the IC50 in [8] was > 50 µM (not active).
As to `COc1ccc2c3c(n(C)c2c1)[C@@H](CO)N(C(=O)CN(C)C)CC31CCN(Cc2cccnc2)CC1`, the AC50 in test [10] was 2.3 µM (active); in test [11] it was 64.4 µM (active); in [6] it was 2.9 µM (active); in test [12], 2.61 µM (active); in test [7], > 39 µM (inactive); in test [13], 4.01 µM (active).
As to `CCCC(=O)n1nc(-c2ccc(C)cc2)nc1NCc1ccco1`, in test [8], the IC50 is 11.1 µM (active).

The values are drawn from ChEMBL document CHEMBL1201862, “PubChem BioAssay data set” (2004).
